Test results: PMC8881610 (Nature Communications, 2022)
Where a chain is given by its changes, count along the chain named.

Experiments:
Experiment in all cases: Whole-cell binding assay, competition with 125I-GIP1-42
Set-up in all cases: acylated tirzepatide to the full-length or modified; Flag; expressed in transfected cells
GIPR [1] = target: T1, GIPR (Homo sapiens, UniProt P48546, E135A); settings: GIPR E135A, CHO-K1
T1 sequence (P48546 22-466 E135A): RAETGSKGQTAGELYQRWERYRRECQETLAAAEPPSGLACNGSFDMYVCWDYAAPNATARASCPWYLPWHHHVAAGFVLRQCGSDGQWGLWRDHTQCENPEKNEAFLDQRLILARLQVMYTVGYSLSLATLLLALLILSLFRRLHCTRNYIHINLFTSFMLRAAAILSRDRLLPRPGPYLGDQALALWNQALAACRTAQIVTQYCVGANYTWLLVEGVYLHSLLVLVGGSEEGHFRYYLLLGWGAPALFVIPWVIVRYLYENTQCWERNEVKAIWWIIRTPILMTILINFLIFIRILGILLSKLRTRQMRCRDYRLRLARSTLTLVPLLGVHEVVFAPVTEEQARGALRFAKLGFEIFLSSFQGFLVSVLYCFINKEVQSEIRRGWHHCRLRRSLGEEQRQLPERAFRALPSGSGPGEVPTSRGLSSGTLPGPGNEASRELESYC
Method in brief: (§1)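 Transiently transfected CHO-K1 cells expressing WT or mutant GIPR were washed in F-12 with 0.1% BSA or 0.1% casein and 33 mM HEPES, then incubated 2 h at 37 °C. After ice-cold PBS washes, cells were lysed and bound radioactivity counted (CPM).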

GIPR [2] = target: T2, GIPR (Homo sapiens, UniProt P48546, F127A); settings: GIPR F127A, CHO-K1
T2 sequence (P48546 22-466 F127A): T1 sequence (P48546 22-466 E135A) with F106A, A114E
Method in brief: as §1

GIPR [3] = target: T3, GIPR (Homo sapiens, UniProt P48546, W209A); settings: GIPR W209A, CHO-K1
T3 sequence (P48546 22-466 W209A): T1 sequence (P48546 22-466 E135A) with A114E, W188A
Method in brief: as §1

[4] = read-out: binding pIC50 (converted)

Structure (SMILES): CCCCCCCCCCCCCCCC(=O)N[C@@H](CCC(=O)NCCCC[C@H](NC(=O)[C@H](CC(=O)O)NC(=O)[C@H](CO)NC(=O)[C@@H](NC(=O)[C@H](Cc1ccccc1)NC(=O)[C@@H](NC(=O)CNC(=O)[C@H](CCC(N)=O)NC(=O)C(C)(C)NC(=O)[C@@H](N)Cc1c[nH]cn1)[C@@H](C)O)[C@@H](C)O)C(=O)N[C@@H](CO)C(=O)N[C@@H](CCCCN)C(=O)N[C@@H](Cc1ccc(O)cc1)C(=O)N[C@@H](CC(C)C)C(=O)N[C@@H](CC(=O)O)C(=O)N[C@@H](CCC(=O)O)C(=O)N[C@@H](CCCNC(=N)N)C(=O)N[C@@H](C)C(=O)N[C@@H](C)C(=O)N[C@@H](CCC(N)=O)C(=O)N[C@@H](CC(=O)O)C(=O)N[C@@H](Cc1ccccc1)C(=O)N[C@H](C(=O)N[C@@H](CCC(N)=O)C(=O)N[C@@H](Cc1c[nH]c2ccccc12)C(=O)N[C@@H](CC(C)C)C(=O)N[C@@H](CC(C)C)C(=O)N[C@@H](CC(=O)O)C(=O)NCC(=O)NCC(=O)N1CCC[C@H]1C(=O)N[C@@H](CO)C(=O)N[C@@H](CO)C(=O)NCC(=O)N[C@@H](C)C(=O)N1CCC[C@H]1C(=O)N1CCC[C@H]1C(=O)N1CCC[C@H]1C(=O)N[C@@H](CO)C(N)=O)C(C)C)C(=O)O [Peptide 20]
- binding Span (GIPR [1]): 64.00 ± 2.46 % WT
- IC50 (GIPR [1]; [4]): 5.62 nM
- binding Span (GIPR [2]): 85.53 ± 4.36 % WT
- IC50 (GIPR [2]; [4]): 20 nM
- binding Span (GIPR [3]): 96.83 ± 6.13 % WT
- IC50 (GIPR [3]; [4]): 20 nM
